Assay results as given in patent US10010507B1, “Pharmaceutical formulations of a bruton's tyrosine kinase inhibitor” (Pharmacyclics LLC, priority 2015, dated 2018).
Like-named read-outs stand apart in the source and are kept apart here.

Tested on: OCI-Ly10
Test: Inhibition of growth of OCI-Ly10 (ABC-DLBCL cells)
Type: cell-based
Conditions: Homo sapiens
From the text: DLBCL cells of the ABC subtype, such as OCI-Ly10, have chronic active BCR signaling and are very sensitive to the Btk inhibitor described herein. […] In addition, induction of apoptosis, as shown by capsase activation, Annexin-V flow cytometry and increase in sub-GO fraction is observed in OCILy 10. Both sensitive and resistant cells express Btk at similar levels, and the active site of Btk is fully occupied by the inhibitor in both as shown using a fluorescently labeled affinity probe. […] The activity of Btk inhibitors in the cell lines studied herein are also characterized by comparing signal transduction profiles (Btk, PLCγ, ERK, NF-kB, AKT), cytokine secretion profiles and mRNA expression profiles, both with and without BCR stimulation, and observed significant differences in these profiles that lead to clinical biomarkers that identify the most sensitive patient populations to Btk inhibitor treatment. See U.S. Pat. No. 7,711,492 and Staudt et al., Nature, Vol. 463, Jan. 7, 2010, pp. 88-92, the contents of which are incorporated by reference in their entirety.

- EC50 (read-out: EC50 1 hour pulse, growth of OCI-Ly10, 1 hour pulse): 50 nM
- EC50 (growth of OCI-Ly10, continuous exposure, read-out: EC50 continuous exposure): 10 nM
SMILES: C=CC(=O)N1CCC[C@@H](n2nc(-c3ccc(Oc4ccccc4)cc3)c3c(N)ncnc32)C1 [Compound 1, 1-((R)-3-(4-amino-3-(4-phenoxyphenyl)-1H-pyrazolo[3,4-d]pyrimidin-1-yl)piperidin-1-yl)prop-2-en-1-one]
